According to ChEMBL document CHEMBL1909514, “Imidazo[2,1-b]thiazole guanylhydrazones as RSK2 inhibitors” (Eur J Med Chem, 2011):

Legend:
OVCAR-3 = test: Growth inhibition of human OVCAR3 cells after 48 hrs by SRB assay; type: functional; conditions: OVCAR-3, 48 h
SF-268 = test: Growth inhibition of human SF268 cells after 48 hrs by SRB assay; type: functional; conditions: SF-268, 48 h
NCI-H322M = test: Growth inhibition of human NCI-H322M cells after 48 hrs by SRB assay; type: functional
A498 = test: Growth inhibition of human A498 cells after 48 hrs by SRB assay; type: functional; conditions: A498, 48 h
MDA-MB-231 = test: Growth inhibition of human MDA-MB-231 cells after 48 hrs by SRB assay; type: functional; conditions: MDA-MB-231, 48 h
[1] = molecular target: Serine/threonine-protein kinase Chk2 (Homo sapiens, UniProt O96017)
TK-10 = test: Growth inhibition of human TK10 cells after 48 hrs by SRB assay; type: functional; conditions: TK-10, 48 h
NCI-H460 = test: Growth inhibition of human NCI-H460 cells after 48 hrs by SRB assay; type: functional; conditions: NCI-H460, 48 h
[2] = Growth inhibition of human OVCAR1 cells after 48 hrs by SRB assay; type: functional; conditions: OVCAR1, 48 h
OVCAR-5 = test: Growth inhibition of human OVCAR5 cells after 48 hrs by SRB assay; type: functional; conditions: OVCAR-5, 48 h
DU-145 = test: Growth inhibition of human DU145 cells after 48 hrs by SRB assay; type: functional; conditions: DU-145, 48 h
Malme-3M = test: Growth inhibition of human MALME-3M cells after 48 hrs by SRB assay; type: functional
NCI-H226 = test: Growth inhibition of human NCI-H226 cells after 48 hrs by SRB assay; type: functional; conditions: NCI-H226, 48 h
SN12C = test: Growth inhibition of human SN12C cells after 48 hrs by SRB assay; type: functional
Aurora kinase A = Aurora kinase A (Homo sapiens, UniProt O14965)
BT-549 = test: Growth inhibition of human BT549 cells after 48 hrs by SRB assay; type: functional; conditions: BT-549, 48 h
HCT-15 = test: Growth inhibition of human HCT15 cells after 48 hrs by SRB assay; type: functional; conditions: HCT-15, 48 h
UACC-62 = test: Growth inhibition of human UACC62 cells after 48 hrs by SRB assay; type: functional; conditions: UACC-62, 48 h
[3] = Growth inhibition of human Hs 578T cells after 48 hrs by SRB assay; type: functional
NCI/ADR-RES = test: Growth inhibition of human NCI/ADR-RES cells after 48 hrs by SRB assay; type: functional
UO-31 = test: Growth inhibition of human UO31 cells after 48 hrs by SRB assay; type: functional; conditions: UO-31, 48 h
[4] = molecular target: ALK tyrosine kinase receptor (Homo sapiens, UniProt Q9UM73)
SW-620 = test: Growth inhibition of human SW620 cells after 48 hrs by SRB assay; type: functional; conditions: SW-620, 48 h
HCC 2998 = test: Growth inhibition of human HCC2998 cells after 48 hrs by SRB assay; type: functional; conditions: HCC 2998, 48 h
SF-295 = test: Growth inhibition of human SF295 cells after 48 hrs by SRB assay; type: functional; conditions: SF-295, 48 h
HOP-92 = test: Growth inhibition of human HOP92 cells after 48 hrs by SRB assay; type: functional; conditions: HOP-92, 48 h
MOLT-4 = test: Growth inhibition of human MOLT4 cells after 48 hrs by SRB assay; type: functional; conditions: MOLT-4, 48 h
U-251 = test: Growth inhibition of human U251 cells after 48 hrs by SRB assay; type: functional; conditions: U-251, 48 h
[5] = molecular target: T1, Serine/threonine-protein kinase Chk1 (Homo sapiens, UniProt O14757)
T1 sequence (O14757 whole entry): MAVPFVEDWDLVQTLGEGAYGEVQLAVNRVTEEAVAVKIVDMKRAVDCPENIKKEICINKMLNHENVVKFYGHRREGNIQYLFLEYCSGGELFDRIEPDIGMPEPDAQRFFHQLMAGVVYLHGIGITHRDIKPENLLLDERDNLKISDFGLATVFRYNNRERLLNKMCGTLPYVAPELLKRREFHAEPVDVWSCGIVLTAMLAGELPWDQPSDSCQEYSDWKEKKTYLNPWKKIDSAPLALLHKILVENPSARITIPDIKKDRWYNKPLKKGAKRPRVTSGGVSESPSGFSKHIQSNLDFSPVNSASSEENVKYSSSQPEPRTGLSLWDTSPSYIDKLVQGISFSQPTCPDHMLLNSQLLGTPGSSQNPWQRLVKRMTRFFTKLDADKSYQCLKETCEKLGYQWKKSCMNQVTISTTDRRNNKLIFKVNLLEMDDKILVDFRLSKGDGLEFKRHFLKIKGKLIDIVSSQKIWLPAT

MCF7 = test: Growth inhibition of human MCF7 cells after 48 hrs by SRB assay; type: functional; conditions: MCF7, 48 h
T47D = test: Growth inhibition of human T47D cells after 48 hrs by SRB assay; type: functional
[6] = read-out: pLC50 (the source's name) (converted)

Chain of Serine/threonine-protein kinase Chk2 (O96017 whole entry): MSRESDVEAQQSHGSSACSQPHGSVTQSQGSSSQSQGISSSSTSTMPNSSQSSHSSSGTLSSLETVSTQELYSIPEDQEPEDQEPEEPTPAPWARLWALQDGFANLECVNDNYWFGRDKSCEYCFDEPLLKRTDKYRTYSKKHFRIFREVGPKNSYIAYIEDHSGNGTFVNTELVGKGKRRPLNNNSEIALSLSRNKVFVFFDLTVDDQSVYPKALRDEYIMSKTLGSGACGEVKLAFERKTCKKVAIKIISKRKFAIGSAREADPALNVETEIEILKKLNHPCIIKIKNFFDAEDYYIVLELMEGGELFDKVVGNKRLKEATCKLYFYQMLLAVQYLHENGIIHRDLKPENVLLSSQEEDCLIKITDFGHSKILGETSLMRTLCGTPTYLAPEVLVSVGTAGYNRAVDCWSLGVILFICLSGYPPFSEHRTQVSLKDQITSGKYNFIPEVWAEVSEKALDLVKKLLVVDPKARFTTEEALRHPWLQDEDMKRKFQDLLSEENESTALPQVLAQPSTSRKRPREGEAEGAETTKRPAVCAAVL
Chain of Aurora kinase A (O14965 whole entry): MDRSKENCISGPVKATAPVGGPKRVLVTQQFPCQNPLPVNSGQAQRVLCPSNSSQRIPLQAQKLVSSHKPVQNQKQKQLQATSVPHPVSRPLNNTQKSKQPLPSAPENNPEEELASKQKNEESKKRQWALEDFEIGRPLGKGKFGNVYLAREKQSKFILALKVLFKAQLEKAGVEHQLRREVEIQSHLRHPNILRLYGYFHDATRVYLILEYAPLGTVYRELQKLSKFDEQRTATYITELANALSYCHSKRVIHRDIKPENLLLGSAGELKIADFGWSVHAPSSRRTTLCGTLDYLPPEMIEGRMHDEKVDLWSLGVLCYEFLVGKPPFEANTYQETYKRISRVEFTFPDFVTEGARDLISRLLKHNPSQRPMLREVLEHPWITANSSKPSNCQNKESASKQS
Chain of ALK tyrosine kinase receptor (Q9UM73 whole entry): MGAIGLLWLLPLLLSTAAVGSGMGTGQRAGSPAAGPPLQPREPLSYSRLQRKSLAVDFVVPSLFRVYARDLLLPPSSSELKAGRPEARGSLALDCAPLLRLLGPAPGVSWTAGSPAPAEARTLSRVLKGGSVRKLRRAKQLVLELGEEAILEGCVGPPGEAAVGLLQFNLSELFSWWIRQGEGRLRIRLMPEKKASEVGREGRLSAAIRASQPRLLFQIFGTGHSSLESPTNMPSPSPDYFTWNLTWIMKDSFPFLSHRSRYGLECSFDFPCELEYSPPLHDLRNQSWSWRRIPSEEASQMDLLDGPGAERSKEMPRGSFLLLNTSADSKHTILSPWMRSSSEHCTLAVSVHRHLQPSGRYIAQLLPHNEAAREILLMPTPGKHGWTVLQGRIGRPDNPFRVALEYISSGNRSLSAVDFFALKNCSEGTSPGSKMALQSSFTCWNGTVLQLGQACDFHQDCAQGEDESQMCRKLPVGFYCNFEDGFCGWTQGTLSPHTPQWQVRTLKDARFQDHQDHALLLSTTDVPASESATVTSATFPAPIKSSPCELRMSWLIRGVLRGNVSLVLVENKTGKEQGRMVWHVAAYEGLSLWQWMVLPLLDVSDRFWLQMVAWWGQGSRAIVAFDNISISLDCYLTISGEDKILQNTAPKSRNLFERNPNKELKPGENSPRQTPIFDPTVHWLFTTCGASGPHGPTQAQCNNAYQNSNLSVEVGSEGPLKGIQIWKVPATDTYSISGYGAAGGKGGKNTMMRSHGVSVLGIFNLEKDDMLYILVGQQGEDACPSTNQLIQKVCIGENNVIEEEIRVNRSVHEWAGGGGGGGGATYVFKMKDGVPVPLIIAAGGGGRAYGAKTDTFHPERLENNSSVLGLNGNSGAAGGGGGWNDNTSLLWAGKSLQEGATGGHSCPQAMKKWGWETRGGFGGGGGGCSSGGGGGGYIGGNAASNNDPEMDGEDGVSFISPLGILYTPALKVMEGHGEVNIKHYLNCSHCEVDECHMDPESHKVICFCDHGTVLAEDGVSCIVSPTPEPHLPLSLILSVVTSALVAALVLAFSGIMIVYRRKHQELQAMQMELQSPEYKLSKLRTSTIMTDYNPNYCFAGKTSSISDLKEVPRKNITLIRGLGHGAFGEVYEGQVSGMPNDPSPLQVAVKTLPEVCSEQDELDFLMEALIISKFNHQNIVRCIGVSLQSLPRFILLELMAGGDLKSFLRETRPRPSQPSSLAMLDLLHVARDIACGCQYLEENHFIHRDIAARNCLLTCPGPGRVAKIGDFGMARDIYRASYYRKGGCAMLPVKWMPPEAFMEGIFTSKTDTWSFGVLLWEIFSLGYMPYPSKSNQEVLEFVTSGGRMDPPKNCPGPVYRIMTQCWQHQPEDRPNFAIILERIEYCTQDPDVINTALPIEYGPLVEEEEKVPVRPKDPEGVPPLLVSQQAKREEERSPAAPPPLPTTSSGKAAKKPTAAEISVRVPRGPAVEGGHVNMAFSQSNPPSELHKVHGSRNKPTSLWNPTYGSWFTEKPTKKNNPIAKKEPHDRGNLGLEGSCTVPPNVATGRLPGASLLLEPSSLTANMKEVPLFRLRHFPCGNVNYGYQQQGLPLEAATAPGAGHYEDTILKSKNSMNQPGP

N=C(N)N/N=C\c1c(-c2ccc([N+](=O)[O-])cc2)nc2sc(Br)cn12 gave a GI50 (OVCAR-3) of 204 nM, a CC50 (OVCAR-3; [6]) of 724 nM and a TGI (OVCAR-3; read-out: pTGI (converted)) of 380 nM. The GI50 (SF-268) was 219 nM, the TGI (SF-268; read-out: pTGI (converted)) was 447 nM and the GI50 (NCI-H322M) was 309 nM. The CC50 (NCI-H322M; [6]) was 3980 nM, the TGI (NCI-H322M; read-out: pTGI (converted)) was 4170 nM and the GI50 (A498) was 1580 nM. For the same molecule, the CC50 (A498; [6]) was 6030 nM, the TGI (A498; read-out: pTGI (converted)) was 3090 nM and the GI50 (MDA-MB-231) was 275 nM. The CC50 (MDA-MB-231; [6]) was 3890 nM, the TGI (MDA-MB-231; read-out: pTGI (converted)) was 851 nM and the IC50 [1] was 1960 nM. The GI50 (TK-10) was 269 nM, the CC50 (TK-10; [6]) was 4470 nM and the TGI (TK-10; read-out: pTGI (converted)) was 1100 nM. It also gave a GI50 (NCI-H460) of 229 nM, a CC50 (NCI-H460; [6]) of 1820 nM and a TGI (NCI-H460; read-out: pTGI (converted)) of 501 nM. The GI50 [2] was 186 nM, the CC50 [2, 6] was 661 nM and the TGI ([2]; read-out: pTGI (converted)) was 347 nM. It also gave a GI50 (OVCAR-5) of 186 nM, a CC50 (OVCAR-5; [6]) of 851 nM and a TGI (OVCAR-5; read-out: pTGI (converted)) of 398 nM. The GI50 (DU-145) was 200 nM, the CC50 (DU-145; [6]) was 813 nM and the TGI (DU-145; read-out: pTGI (converted)) was 398 nM. The GI50 (Malme-3M) was 1000 nM, the TGI (Malme-3M; read-out: pTGI (converted)) was 4170 nM and the GI50 (NCI-H226) was 1860 nM. It also gave a CC50 (NCI-H226; [6]) greater than 100000 nM, a TGI (NCI-H226; read-out: pTGI (converted)) of 4470 nM and a GI50 (SN12C) of 617 nM. The CC50 (SN12C; [6]) was 5890 nM, the TGI (SN12C; read-out: pTGI (converted)) was 2820 nM and the IC50 (Aurora kinase A) was greater than 20000 nM. For the same molecule, the GI50 (BT-549) was 186 nM, the CC50 (BT-549; [6]) was 7240 nM and the TGI (BT-549; read-out: pTGI (converted)) was 3630 nM. For the same molecule, the GI50 (HCT-15) was 302 nM, the CC50 (HCT-15; [6]) was greater than 100000 nM and the TGI (HCT-15; read-out: pTGI (converted)) was 26900 nM. The GI50 (UACC-62) was 347 nM, the CC50 (UACC-62; [6]) was 4570 nM and the TGI (UACC-62; read-out: pTGI (converted)) was 4470 nM. For the same molecule, the GI50 [3] was 288 nM, the CC50 [3, 6] was 3470 nM and the TGI ([3]; read-out: pTGI (converted)) was 933 nM. It also gave a GI50 (NCI/ADR-RES) of 219 nM, a CC50 (NCI/ADR-RES; [6]) of 3550 nM and a TGI (NCI/ADR-RES; read-out: pTGI (converted)) of 891 nM. The GI50 (UO-31) was 174 nM, the CC50 (UO-31; [6]) was 676 nM and the TGI (UO-31; read-out: pTGI (converted)) was 355 nM. For the same molecule, the IC50 [4] was greater than 20000 nM, the GI50 (SW-620) was 182 nM and the CC50 (SW-620; [6]) was 891 nM. The TGI (SW-620; read-out: pTGI (converted)) was 407 nM, the GI50 (HCC 2998) was 234 nM and the CC50 (HCC 2998; [6]) was 2340 nM. The TGI (HCC 2998; read-out: pTGI (converted)) was 646 nM, the GI50 (SF-295) was 575 nM and the CC50 (SF-295; [6]) was 6310 nM. The TGI (SF-295; read-out: pTGI (converted)) was 4470 nM, the GI50 (HOP-92) was 676 nM and the CC50 (HOP-92; [6]) was 5130 nM. For the same molecule, the TGI (HOP-92; read-out: pTGI (converted)) was 2630 nM, the GI50 (MOLT-4) was 195 nM and the GI50 (U-251) was 195 nM. It also gave a CC50 (U-251; [6]) greater than 100000 nM, an IC50 [5] of 13800 nM and a GI50 (MCF7) of 162 nM. For the same molecule, the TGI (MCF7; read-out: pTGI (converted)) was 324 nM, the GI50 (T47D) was 170 nM and the TGI (T47D; read-out: pTGI (converted)) was 3630 nM.
